{"source": "patent US20050287594A1", "about": "(priority 2000, published 2005)", "key": {"[1]": {"details": "pH 8"}, "cALDH-I [2]": {"molecular_target": "T1, cALDH-I (Rattus norvegicus, UniProt P51647)", "T1 construct": "His tag (pTrcHis vector) (N); made in house; host or cells: E. coli BL-21", "T1 sequence (P51647 1-501)": "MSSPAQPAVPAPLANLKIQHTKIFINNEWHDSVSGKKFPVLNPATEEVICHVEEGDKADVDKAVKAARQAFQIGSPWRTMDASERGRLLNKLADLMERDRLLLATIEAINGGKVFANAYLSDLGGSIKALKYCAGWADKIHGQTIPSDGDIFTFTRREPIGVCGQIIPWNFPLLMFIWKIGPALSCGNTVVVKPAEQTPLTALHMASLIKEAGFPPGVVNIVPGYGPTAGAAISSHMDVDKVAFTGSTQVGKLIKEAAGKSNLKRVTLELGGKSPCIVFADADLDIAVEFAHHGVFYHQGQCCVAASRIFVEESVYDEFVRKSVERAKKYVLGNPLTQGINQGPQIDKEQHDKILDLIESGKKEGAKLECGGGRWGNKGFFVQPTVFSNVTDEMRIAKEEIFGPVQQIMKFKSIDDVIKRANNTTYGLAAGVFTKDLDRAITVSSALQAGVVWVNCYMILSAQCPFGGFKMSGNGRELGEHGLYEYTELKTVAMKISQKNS", "assay_type": "binding"}, "cALDH-I [3]": {"molecular_target": "T1, cALDH-I", "assay_type": "biochemical"}, "cALDH-I [4]": {"molecular_target": "T1, cALDH-I", "details": "read-out: Michealis constant Km, reported literature value; cited from earlier work"}, "rat testis proteome": {"tested_on": "rat testis proteome", "assay_type": "binding"}}, "note": "Like-named read-outs stand apart in the source and are kept apart here.", "data": [{"compound": "CCCCCCCCOS(=O)(=O)c1ccccn1", "note": "[Sulfonate 15, 1-(2-Pyridylsulfonyl)oxo-octane]", "values": [{"measurement": "stability in reaction buffer", "setting": "[1]", "value": "stable to the assay conditions employed"}, {"measurement": "blocking of the labeling of cALDH-I by 1", "setting": "cALDH-I [2]", "value": "effectively blocked the labeling of cALDH-I by 1"}, {"measurement": "average Kobs/[I]", "setting": "cALDH-I [3]", "value": "(9.7+1.8)×10^3 M^−min^−"}, {"measurement": "cALDH-I inactivation (in words)", "setting": "cALDH-I [3]", "value": "completely inactivated"}, {"measurement": "effect of NAD^+ on inactivation of cALDH-I by 15", "setting": "cALDH-I [3]", "value": "completely protected the enzyme from inactivation"}]}, {"compound": "CCC=O", "note": "[propionaldehyde, reference compound]", "values": [{"measurement": "Km", "setting": "cALDH-I [3]; read-out: Michealis constant Km", "value": 4.2, "unit": "µM"}, {"measurement": "Km", "setting": "cALDH-I [4]", "value": 6.5, "unit": "µM"}]}, {"compound": "O=C(CCCCCCCCCOS(=O)(=O)c1ccccn1)NCCCCCNC(=O)CCCC[C@@H]1SC[C@@H]2NC(=O)N[C@@H]21", "note": "[sulfonate 1, 10-((2-pyridylsulfonyl)oxo)-N-biotinamidopentyldecanamide]", "values": [{"measurement": "specific (heat-sensitive) proteome reactivity", "setting": "rat testis proteome", "value": "labeled a 55 kDa protein and a 31 kDa protein"}]}, {"compound": "O=C(CCCCCCCCCOS(=O)(=O)c1ccccc1)NCCCCCNC(=O)CCCCC1SCC2NC(=O)NC21", "note": "(stereo not drawn) [sulfonate 2, 10-((Benzenesulfonyl)oxo)-N-biotinamidopentyldecanamide]", "values": [{"measurement": "specific (heat-sensitive) proteome reactivity", "setting": "rat testis proteome", "value": "reacted with three of the four proteins labeled by 4 and 5"}]}, {"compound": "Cc1ccc(S(=O)(=O)OCCCCCCCCCC(=O)NCCCCCNC(=O)CCCCC2SCC3NC(=O)NC32)cc1", "note": "(stereo not drawn) [sulfonate 3, 10-((p-Toluenesulfonyl)oxo)-N-biotinamidopentyldecanamide]", "values": [{"measurement": "specific (heat-sensitive) proteome reactivity", "setting": "rat testis proteome", "value": "specifically labeled one 55 kDa protein"}]}, {"compound": "COc1ccc(S(=O)(=O)OCCCCCCCCCC(=O)NCCCCCNC(=O)CCCCC2SCC3NC(=O)NC32)cc1", "note": "(stereo not drawn) [sulfonate 4, 10-((4-Methoxybenzenesulfonyl)oxo)-N-biotinamidopentyldecanamide]", "values": [{"measurement": "nonspecific (heat-insensitive) reactivity with the preheated proteome", "setting": "rat testis proteome", "value": "showed significant additional reactivity with the preheated proteome"}, {"measurement": "specific (heat-sensitive) proteome reactivity", "setting": "rat testis proteome", "value": "labeled four members of the proteome in a heat-sensitive manner"}]}, {"compound": "CS(=O)(=O)OCCCCCCCCCC(=O)NCCCCCNC(=O)CCCCC1SCC2NC(=O)NC21", "note": "(stereo not drawn) [sulfonate 5, 10-((Methylsulfonyl)oxo)-N-biotinamidopentyldecanamide]", "values": [{"measurement": "nonspecific (heat-insensitive) reactivity with the preheated proteome", "setting": "rat testis proteome", "value": "showed significant additional reactivity with the preheated proteome"}, {"measurement": "specific (heat-sensitive) proteome reactivity", "setting": "rat testis proteome", "value": "labeled four members of the proteome in a heat-sensitive manner"}]}, {"compound": "CCCCS(=O)(=O)OCCCCCCCCCC(=O)NCCCCCNC(=O)CCCCC1SCC2NC(=O)NC21", "note": "(stereo not drawn) [sulfonate 6, 10-((Butylsulfonyl)oxo)-N-biontinamidopentyldecanamide]", "values": [{"measurement": "specific (heat-sensitive) proteome reactivity", "setting": "rat testis proteome", "value": "specifically labeled one 55 kDa protein"}]}, {"compound": "O=C(CCCCCCCCCOS(=O)(=O)c1ccc([N+](=O)[O-])cc1)NCCCCCNC(=O)CCCCC1SCC2NC(=O)NC21", "note": "(stereo not drawn) [sulfonate 8, 10-((4-Nitrobenzenesulfonyl)oxo)-N-biotinamidopentyldecanamide]", "values": [{"measurement": "specific (heat-sensitive) proteome reactivity", "setting": "rat testis proteome", "value": "reacted specifically with a 55 kDa protein, as well as two additional proteins poorly labeled by the other reagents"}]}, {"compound": "O=C(CCCCCCCCCOS(=O)(=O)c1cccc2cccnc12)NCCCCCNC(=O)CCCCC1SCC2NC(=O)NC21", "note": "(stereo not drawn) [sulfonate 9, 10-((8-Quinolinesulfonyl)oxo)-N-biotinamidopentyldecanamide]", "values": [{"measurement": "specific (heat-sensitive) proteome reactivity", "setting": "rat testis proteome", "value": "reacted specifically with a 55 kDa protein, as well as two additional proteins poorly labeled by the other reagents"}]}, {"compound": "O=C(CCCCCCCCCOS(=O)(=O)c1ccc2ccccc2c1)NCCCCCNC(=O)CCCCC1SCC2NC(=O)NC21", "note": "(stereo not drawn) [sulfonate 10, 10-((2-Naphthalenesulfonyl)oxo)-N-biotinamidopentyldecanamide]", "values": [{"measurement": "specific (heat-sensitive) proteome reactivity", "setting": "rat testis proteome", "value": "specifically labeled one 55 kDa protein"}]}, {"compound": "O=C(CCCCCCCCCOS(=O)(=O)c1cccs1)NCCCCCNC(=O)CCCCC1SCC2NC(=O)NC21", "note": "(stereo not drawn) [sulfonate 11]", "values": [{"measurement": "specific (heat-sensitive) proteome reactivity", "setting": "rat testis proteome", "value": "reacted specifically with a 55 kDa protein, as well as two additional proteins poorly labeled by the other reagents"}]}, {"compound": "CCOS(=O)(=O)c1ccccn1", "note": "[sulfonate 16, 1-(2-Pyridylsulfonyl)oxo-ethane]", "values": [{"measurement": "blocking of the labeling of cALDH-I by 1", "setting": "cALDH-I [2]", "value": "did not block the labeling of cALDH-I by 1"}, {"measurement": "% Activity Remaining", "setting": "cALDH-I [3]", "value": 42, "unit": "%"}, {"measurement": "Kobs/[I]", "setting": "cALDH-I [3]", "value": 0.00417, "unit": "M⁻¹ s⁻¹"}, {"measurement": "cALDH-I inactivation (in words)", "setting": "cALDH-I [3]", "value": "weak"}, {"measurement": "second order inhibition rate constant, times lower than that determined for 15", "setting": "cALDH-I [3]", "value": 40000, "unit": "times"}]}, {"compound": "CCCCCCCCOS(C)(=O)=O", "note": "[sulfonate 17, 1-(Methanesulfonyl)oxo-octane]", "values": [{"measurement": "blocking of the labeling of cALDH-I by 1", "setting": "cALDH-I [2]", "value": "did not block the labeling of cALDH-I by 1"}, {"measurement": "% Activity Remaining", "setting": "cALDH-I [3]", "value": 100, "unit": "%"}, {"measurement": "cALDH-I inactivation (in words)", "setting": "cALDH-I [3]", "value": "no inhibition"}]}]}
